Source: patent publication US9096591B2, “Tetracyclic compounds” (Medivation Technologies, Inc., priority 2007, dated 2015)
“And” between values parts separate entries of the source, which are not always exact repeats. Equal entries are not always repeated.

What was measured:
[1] = target: human recombinant dopamine D2S receptor (Homo sapiens, UniProt P14416); experiment: Dopamine D2S antagonist activity ([35S]GTPγS binding, SPA); type: biochemical; conditions: for Antagonist Activity As Measured by % Inhibition D2S / inhibition at 0.03 µM / inhibition at 0.1 µM / inhibition at 0.3 µM: two values = assay run twice; for inhibition at 0.03 µM / inhibition at 0.1 µM / inhibition at 0.3 µM / inhibition at 1 µM / inhibition at 3 µM: read-out: Antagonist Activity As Measured by % Inhibition D2S
Sequence of human recombinant dopamine D2S receptor (P14416 1-414 isoform P14416-2): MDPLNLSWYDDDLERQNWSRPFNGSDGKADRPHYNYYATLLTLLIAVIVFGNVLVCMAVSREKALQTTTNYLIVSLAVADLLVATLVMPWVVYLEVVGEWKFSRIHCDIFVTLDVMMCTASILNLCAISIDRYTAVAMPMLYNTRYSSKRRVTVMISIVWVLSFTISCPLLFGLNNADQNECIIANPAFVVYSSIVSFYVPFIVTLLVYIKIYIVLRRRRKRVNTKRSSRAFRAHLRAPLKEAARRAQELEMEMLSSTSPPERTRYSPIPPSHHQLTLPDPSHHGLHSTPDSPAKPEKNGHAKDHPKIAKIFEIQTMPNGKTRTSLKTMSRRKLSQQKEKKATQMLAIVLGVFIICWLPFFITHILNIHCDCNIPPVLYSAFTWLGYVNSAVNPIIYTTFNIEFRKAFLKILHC
Method: To determine for agonist or antagonist activity of compounds of the invention in functional assays, human recombinant dopamine D2S receptor stably expressed in Chinese hamster ovary (CHO) cells (Gilliland S L and Alper R H. Naunyn-Schmiedeberg's Archives of Pharmacology. 361: 498, 2000) was used. Compounds of invention were pre-incubated with the membranes (0.05 mg/ml) and 3 μM GDP in modified HEPES buffer (20 mM HEPES, pH 7.4, 100 mM NaCl, 10 mM MgCl2, 1 mM DTT, 1 mM EDTA) for 20 minutes and Scintillation Proximity Assay (SPA) beads were then added for another 60 minutes at 30° C. The reaction was initiated by 0.3 nM [^35S]GTPγS for an additional 30 minute incubation period. […] Compounds were screened at 3 μM or lower, using 0.4% DMSO as vehicle. Assay results are presented as the percent response of specific binding in Table 9.

[2] = system: synaptosomes of cortex of rat brain; experiment: Glutamate-induced 45Ca2+ uptake into synaptosomes; type: biochemical, Wistar rats; conditions: for % Ca of control (control-100%), glutamate-induced 45Ca2+ uptake into synaptosomes: rat cortex synaptosomes
Procedure, shortened: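 Cortical synaptosomes (P2 fraction) from 9-10-day-old Wistar rats, ~1.5-2 mg/ml protein in HEPES-buffered saline with glucose, pH 7.4, stimulated 5 min with 200 μM glutamate at 37° C. 45Ca2+ uptake measured by filtration and scintillation counting; specific uptake with compound expressed as percentage of glutamate-induced uptake, each corrected for unstimulated uptake.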

AMPA receptors = experiment: AMPA-receptor activity: kainic acid-induced currents in Purkinje cells (patch-clamp); type: cell-based, rat; conditions: mean±SEM, control=100%
Method: The analysis of effects of the testing compounds on AMPA receptors was carried out using an electrophysiological patch-clamp method in whole cell configuration (Hamill et al., 1980) of the Purkinje cell fresh isolated from the cerebellum of juvenile rats (12-15 days). The isolation was carried out using a modified method (Kaneda et al., 1988) in which cerebral 400-600 μm sections were incubated for 60 min in the temperature controlled chamber in 10 mL of buffer solution (150 mM NaCl, 5 mM KCl, 2 mM CaCl2, 2 mM MgSO4.7H2O, 10 mM HEPES, 15 mM glucose, pH 7.42). The incubation solution was exchanged with the incubation buffer with pronase (2 mg/mL) and collagenase (1 mg/mL) for 70 min. After a 20 min wash with the original buffer, all sections were placed into the Petri dish and were separated using a Pasteur pipette. All solutions were constantly aerated with 100% O2 at 34° C. The composition of extracellular saline was: 150 mM NaCl, 5 mM KCl, 2.6 mM CaCl2, 2 mM MgSO4.7H2O, 10 mM HEPES, 15 mM glucose, pH 7.36. The transmembrane current was induced as a result of the activation of AMPA receptors by a superfusion with the agonist solution (kainic acid). The currents were measured using borosilicate microelectrodes (resistance […]) filled with 100 mM KCl, 11 mM EGTA, 1 mM CaCl2, 1 mM MgCl2, 10 mM HEPES, 5 mM ATP, pH 7.2. The currents were registered using EPC-9 (HEKA, Germany) and recorded with Pulse software package which was also purchased from HEKA. The analysis of observations was carried out using Pulsefit (HEKA, Germany) and the statistical significance was analyzed using a Student's T-test criteria. Data are presented as mean±SEM in % of control values.
Compounds of the invention were tested in 3-5 neurons. Every concentration of compound was repeated three-four times in every neuron. Data are presented as mean±SEM in % of Control values (Table 13+14, FIGS. 8-12). Control value=100%.

| Compound | glutamate-induced 45Ca2+ uptake into synaptosomes of rat cortex, % Ca of control (control-100%) ([2]; C 100 μM) [%] | % Ca of control (control-100%), glutamate-induced 45Ca2+ uptake into synaptosomes ([2]; compound 0.1 μM) [%] | % Ca of control (control-100%), glutamate-induced 45Ca2+ uptake into synaptosomes ([2]; compound 0.5 μM) [%] | % Ca of control (control-100%), glutamate-induced 45Ca2+ uptake into synaptosomes ([2]; compound 1 μM) [%] | % Ca of control (control-100%), glutamate-induced 45Ca2+ uptake into synaptosomes ([2]; compound 5 μM) [%] | % Ca of control (control-100%), glutamate-induced 45Ca2+ uptake into synaptosomes ([2]; compound 10 μM) [%] | % Ca of control (control-100%), glutamate-induced 45Ca2+ uptake into synaptosomes ([2]; compound 50 μM) [%] | % Ca of control (control-100%), glutamate-induced 45Ca2+ uptake into synaptosomes ([2]; compound 100 μM) [%] | kainic acid-induced currents in Purkinje cells, % of Control values (AMPA receptors; compound 10^−5 M) [%] | kainic acid-induced currents in Purkinje cells, % of Control values (AMPA receptors; compound 10^−6 M) [%] | kainic acid-induced currents in Purkinje cells, % of Control values (AMPA receptors; compound 10^−7 M) [%] | kainic acid-induced currents in Purkinje cells, % of Control values (AMPA receptors; compound 10^−8 M) [%] | kainic acid-induced currents in Purkinje cells, % of Control values (AMPA receptors; compound 10^−9 M) [%] | kainic acid-induced currents in Purkinje cells, % of Control values (AMPA receptors; compound 3 × 10^−5 M) [%] | concentration at which glutamate-induced 45Ca2+ uptake into synaptosomes was increased [2] [µM] | other results |
| --- | --- | --- | --- | --- | --- | --- | --- | --- | --- | --- | --- | --- | --- | --- | --- | --- |
| CN1CCc2c(c3cc(Cl)ccc3n2CCc2ccccc2)C1 [Compound 36, 8-chloro-2,3,4,5-tetrahydro-2-methyl-5-phenethyl-1H-pyrido[4,3-b]indole] |  |  |  |  |  |  |  |  |  |  |  |  |  |  |  | Antagonist Activity As Measured by % Inhibition D2S ([1]; 0.03 uM): 85%; inhibition at 0.03 µM ([1]; 0.03 uM): 76%; inhibition at 0.1 µM ([1]; 0.1 uM): 97%; Antagonist Activity As Measured by % Inhibition D2S ([1]; 0.3 uM): 104%; inhibition at 0.3 µM ([1]; 0.3 uM): 98%; inhibition at 1 µM [1]: 102%; inhibition at 3 µM [1]: 107% |
| COc1ccc(CCn2c3c(c4cc(C)ccc42)CN(C)CC3)cc1 [Compound 247] |  |  |  |  |  |  |  |  |  |  |  |  |  |  |  | Antagonist Activity As Measured by % Inhibition D2S ([1]; 0.03 uM): 68%; inhibition at 0.03 µM ([1]; 0.03 uM): 67%; Antagonist Activity As Measured by % Inhibition D2S ([1]; 0.1 uM): 89%; inhibition at 0.1 µM ([1]; 0.1 uM): 97%; Antagonist Activity As Measured by % Inhibition D2S ([1]; 0.3 uM): 93%; inhibition at 0.3 µM ([1]; 0.3 uM): 81%; inhibition at 1 µM [1]: 110%; inhibition at 3 µM [1]: 108% |
| Cc1ccc2c(c1)c1c(n2CCc2nc(-c3ccccc3)cs2)CCN(C)C1 [Compound C1-5] | 130 | 96.3 ± 5.6 | 77.5 ± 0.8 | 94 ± 3.4 | 96 ± 1.5 | 117.2 ± 1.3 | 115.4 ± 4.8 | 30.1 ± 7.4 | 126 ± 18 | 64 ± 23 | 70 ± 23 | 62 ± 12 | 64 ± 8 |  |  | inhibition of glutamate-induced 45Ca2+ uptake into synaptosomes ([2]; 0.5 μM): about 22.5% |
| COc1ccc2c(c1)c1c(n2CCc2nc(-c3ccccc3)cs2)CCN(C)C1 [Compound C1-6] |  |  |  |  |  |  |  |  | 135 ± 1 | 146 ± 12 | 116 ± 7 | 101 ± 4 | 100 ± 3 | 130 ± 6 |  |  |
| CN1CCc2c(c3cc(F)ccc3n2CCc2nc(-c3ccccc3)cs2)C1 [Compound C1-7] | 139.8 | 77.5 ± 2.4 | 72.7 ± 0.3 | 98.6 ± 2.4 | 131.8 ± 8.8 | 134.5 ± 9.2 | 126.7 ± 7.7 | 139.8 ± 6.5 |  |  |  |  |  |  | 5 to 100 | inhibition of glutamate-induced 45Ca2+ uptake into synaptosomes ([2]; 0.1-0.5 μM): ~27.3% |
| CN1CCc2c(c3ccccc3n2CCc2noc(-c3ccccc3)n2)C1 [Compound C4-1] | 115.9 ± 8.8 |  |  |  |  |  |  |  | 97 ± 4 | 110 ± 5 | 115 ± 3 | 147 ± 11 | 125 ± 6 |  |  | inhibition of glutamate-induced 45Ca2+ uptake into synaptosomes ([2]; 0.1-0.5 μM): about 20%; glutamate-induced 45Ca2+ uptake into synaptosomes of rat cortex, % Ca of control (control-100%) ([2]; C 0.1 μM): 79.4 ± 6.1%; glutamate-induced 45Ca2+ uptake into synaptosomes of rat cortex, % Ca of control (control-100%) ([2]; C 0.5 μM): 79.2 ± 10%; glutamate-induced 45Ca2+ uptake into synaptosomes of rat cortex, % Ca of control (control-100%) ([2]; C 1.0 μM): 106.1 ± 7.9%; glutamate-induced 45Ca2+ uptake into synaptosomes of rat cortex, % Ca of control (control-100%) ([2]; C 5.0 μM): 128% and 128 ± 4.5%; glutamate-induced 45Ca2+ uptake into synaptosomes of rat cortex, % Ca of control (control-100%) ([2]; C 10 μM): 107.6 ± 3.5%; glutamate-induced 45Ca2+ uptake into synaptosomes of rat cortex, % Ca of control (control-100%) ([2]; C 25 μM): 114.3 ± 0.5%; glutamate-induced 45Ca2+ uptake into synaptosomes of rat cortex, % Ca of control (control-100%) ([2]; C 50 μM): 110.1 ± 5.1% |
| Cc1ccc2c(c1)c1c(n2CCc2noc(-c3ccccc3)n2)CCN(C)C1 [Compound C4-4] | 125.3 ± 11.2 |  |  |  |  |  |  |  | 150 ± 26 | 142 ± 11 | 147 ± 15 | 129 ± 5 | 100 | 150 ± 20 | 50 to 100 | concentration at which glutamate-induced 45Ca2+ uptake into synaptosomes was inhibited [2]: 0.5 µM; inhibition of glutamate-induced 45Ca2+ uptake into synaptosomes ([2]; 1 μM (maximal inhibition)): 20.5%; glutamate-induced 45Ca2+ uptake into synaptosomes of rat cortex, % Ca of control (control-100%) ([2]; C 0.1 μM): 111.2 ± 9.2%; glutamate-induced 45Ca2+ uptake into synaptosomes of rat cortex, % Ca of control (control-100%) ([2]; C 0.5 μM): 81.8 ± 14%; glutamate-induced 45Ca2+ uptake into synaptosomes of rat cortex, % Ca of control (control-100%) ([2]; C 1.0 μM): 79.5 ± 11.1%; glutamate-induced 45Ca2+ uptake into synaptosomes of rat cortex, % Ca of control (control-100%) ([2]; C 5.0 μM): 97.9 ± 4.3%; glutamate-induced 45Ca2+ uptake into synaptosomes of rat cortex, % Ca of control (control-100%) ([2]; C 10 μM): 99.9 ± 11.7%; glutamate-induced 45Ca2+ uptake into synaptosomes of rat cortex, % Ca of control (control-100%) ([2]; C 25 μM): 93.6 ± 15.7%; glutamate-induced 45Ca2+ uptake into synaptosomes of rat cortex, % Ca of control (control-100%) ([2]; C 50 μM): 137.5 ± 5.4% |
| CN1CCc2c(c3cc(Cl)ccc3n2CCc2noc(-c3ccccc3)n2)C1 [Compound C4-6] | 152.2 | 103.6 ± 11.4 | 96.9 ± 11.9 | 105.5 ± 5.2 | 86.5 ± 6.1 | 88.6 ± 2.8 | 122.1 ± 8.5 | 152.0 ± 6.7 | 152 ± 30 | 140 ± 25 | 120 ± 20 | 100 ± 3 |  | 149 ± 33 | 50 to 100 | concentration at which glutamate-induced 45Ca2+ uptake into synaptosomes was inhibited [2]: 5 to 10 µM |
